Assay results taken from patent US20230060873A1, “COMPOUNDS AND METHODS FOR FORMING ION CHANNELS IN BIOLOGICAL MEMBRANES” (Washington University, priority 2021, published 2023).
≈ marks a conversion by molar mass, not a printed value.

What was measured:
Escherichia coli = assay: Toxicity (MIC) of dialkylated lariat ethers on E. coli; assay type: cell-based; details: E. coli XL1 blue, 12 h, visual turbidity, read-out: minimum inhibitory concentration (MIC)
Experimental: (§1) The cyto-toxicity was determined by measuring the minimum inhibitory concentrations (MIC) for this series of dialkylated lariat ethers in the Gram-negative bacteria Escherichia coli, the Gram-positive bacteria Bacillus subtilis, and human embryonic kidney (HEK293T) cells.
On bacteria. XL1 blue strain Escherichia coli cells transformed with a pET28a plasmid (which contains a kanamycin resistance gene) were grown at 37° C. in 2 mL of LB medium (Miller's LB broth, Research Products International) supplemented with 50 μg/mL of kanamycin until the optical density (600 nm) reached 0.600. The starting density of bacteria in the remainder of the experiments was a 1/100 dilution of this bacterial density, which was split into 4 mL cultures. A series of 400, 100, 10 and 5 mM stock solutions of each dialkylated diaza(18-crown-6) compounds in trifluoroethanol (TFE) were diluted by adding to the 4 mL cultures until final concentrations of 400, 200, 100, 50, 20, 15, 10, 5, 4, 3, 2 and 1 μM were reached, with the final TFE concentration never >0.1% v/v. Negative controls in the presence of TFE 0.1% v/v or the absence of any treatment were done for each batch. The cultures were incubated at 37° C. with agitation for 12 h. Bacillus subtilis (168 WT) toxicity tests were carried out using an identical protocol, except for the addition of the antibiotic. […]

B. subtilis cells = assay: Lactate dehydrogenase release (resofurin fluorescence), MAcBCE/MAkBCE and controls; assay type: cell-based, Bacillus subtilis; details: 2 μM, 37° C, potassium lactate/NAD+ solution
Experimental: A 2 mL liquid culture of transformed B. subtilis cells was grown at 37° C. in LB media supplemented with […] kanamycin, until OD600=0.6. Cells were collected by centrifugation at 2000 rpm over 3 min. The bacterial pellet was washed twice in lactate/NAD^+ solution (95 mM potassium lactate, 10 mM nicotinamide adenine dinucleotide (NAD^+), 10 mM HEPES, pH adjusted to 7.4 with KOH). After the last centrifugation step, the bacteria were resuspended until OD600=1.0 in the lactate/NAD^+ solution, then diluted 100× in the same solution. The working fluorophore solution was a 1 mM of resazurin sodium salt (Alfa Cesar) in water. The experiment was started with 3 mL of lactate/NAD^+ solution in a quartz cuvette, then 3.1 μL of resazurin solution was added (timepoint t1, 50 sec) for a 1 μM final concentration, followed by the addition of 100 μL of the diluted B. subtilis suspension (timepoint t2, 100 sec). After 150 sec (timepoint t3, 250 sec), 10 μL of diaphorase (Worthinton Biochemical Corporation) 10 mg/mL solution was added. The final step involved the addition of 0.62 μL of a 10 mM stock solution of dialkylated diaza lariat ether (LEC10) in TFE (timepoint t4, 400 sec), for a final LEC10 concentration of 2 μM; or 3.1 μL of a 2 mM stock solution of valinomycin in DMSO, for a final valinomycin concentration of 2 μM; or 3.1 μL of a 20 mg/mL stock solution of lysozyme in lactate/NAD^+ solution, for a final lysozyme concentration of 20 μg/mL; or 3.1 μL of 10 mM stock solution of each MAcBCE or MAkBCE compounds in TFE, for final concentrations of 10 μM. Fluorescence intensity was recorded each second using a Horiba Fluoromax 4 spectrometer (λexcitation=550 nm; λemission=583 nm). […] To normalize, the fluorescence intensity was divided by the fluorescence level just before timepoint t4. […]
Experiments were repeated at least three times per condition. To normalize, the fluorescence intensity was divided by the fluorescence level just before timepoint t4.

HEK293T cells = assay type: cell-based; details: human, 48 h
Experimental: as §1
On HEK293T cells. Human embryonic kidneys (HEK293T) cells (Thermofisher Scientific) were grown attached in cell culture dishes, detached by trypsin treatment and diluted in Dulbecco's Modified Eagle's Medium (DMEM) medium supplemented with phenol red indicator (Thermofisher scientific) until the density reached 100,000 viable cells/mL. An aliquot of 1 mL of this cell suspension was added to each well of a 24-wells culture plate. After 2 h, when the cells were already attached, a custom amount of 400, 100, 10 or 5 mM TFE solution of the dialkylated diaza(18-crown-6) ether compounds were added until final concentration of 400, 200, 100, 50, 20, 15, 10, 8, 6, 5, 4, 3, 2 or 1 μM were reached. The final TFE concentration never was over 0.1% v/v. Negative controls in the presence of TFE 0.1% v/v or the absence of any treatment were done for each plate. The plates were cultured at 37° C. The MIC was determined as the lowest compound concentration that killed all the cells after 48 h, as judged by trypan blue dye. […]

- minimum inhibitory concentration (MIC) (HEK293T cells): 6 µM (≈ 3.26 µg/mL)
SMILES: CCCCCCCCCCN1CCOCCOCCN(CCCCCCCCCC)CCOCCOCC1 [LEC10, Didecyl diaza(18-crown-6)]
- MIC (Escherichia coli): 10 µM (≈ 5.43 µg/mL)
- resofurin fluorescence (LDH release) (B. subtilis cells): increase in the resofurin fluorescence levels
